The test system of data set [1] is S. epidermidis ATCC 12228. The experiment in a line: Diffusion-well method, inhibition zones. It counts as cell-based, Staphylococcus epidermidis. The conditions noted are these: 500 µg/mL, wells 10 mm. The protocol: (§1) The antibacterial activity of tested samples was assessed against both gram-positive bacteria (Staphylococcus aureus ATCC 25923, Staphylococcus aureus ATCC 6538, Staphylococcus epidermidis ATCC 12228, Enterococcus faecalis ATCC 29212, Listeria monocytogenes ATCC 19115, Bacillus subtilis ATCC 6633, Bacillus cereus ATCC 10876) and gram-negative bacteria (Escherichia coli ATCC 10530, Salmonella typhimurium ATCC 14028). Antibacterial properties were evaluated using both the dilution method (employing DMSO and 96-well plates) and the diffusion-well method (using Mueller Hinton Agar, Merck, Germany).
(§2) 24 hour bacterial cultures with a density of 1–2 × 10^8 CFU mL^−1 were plated (0.1 mL) on Mueller–Hinton Agar (Merck, Germany). Subsequently, wells with a diameter of 10 mm were cut out from and filled with 100 μL of the tested compound at a concentration of 10–500 μg mL^−1 (diluted in DMSO). After an 18-hour incubation at either 30 °C (for Bacillus ssp.) or 37 °C (for other tested microorganisms), the inhibition zones around the wells were measured, and the results were expressed in millimetres (Table S9 ^†).

Another data set concerns S. aureus ATCC 25923. The experiment in a line: Diffusion-well method, inhibition zones. The following applies: 500 µg/mL, wells 10 mm. Type of data set: cell-based, Staphylococcus aureus. In outline:
(§3)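 MHA agar-well diffusion; inoculum 1–2 × 10^8 CFU mL^−1 from 24 h cultures; 10 mm wells; compound 10–500 μg mL^−1 in DMSO; 18 h, 30 °C (Bacillus) / 37 °C (others); zones read in mm.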

The subject of the next data set is S. aureus ATCC 6538. The experiment in a line: Diffusion-well method, inhibition zones. It counts as cell-based, Staphylococcus aureus. The following applies: 500 µg/mL, wells 10 mm. In outline:
as §3

For data set [2], the system named is Escherichia coli ATCC 10530. The data set can be described thus: MIC determination. It counts as cell-based. The following applies: Escherichia coli ATCC 10530; 18 h. In outline:
(§4)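 Agar well-diffusion on Mueller–Hinton agar, inoculum 1.5 × 10^8 CFU mL^−1 (McFarland 0.5), per EUCAST. Compounds in DMSO were added to 10 mm wells, and plates were incubated 18 h at 30 °C (Bacillus subtilis) or 37 °C (others). MIC (μg mL^−1) = lowest concentration preventing growth; three independent replicates.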

The subject of data set [3] is Bacillus subtilis ATCC 6633. The data set can be described thus: MIC determination. Type of data set: cell-based. The conditions noted are these: 18 h. In short, it runs like this:
as §4

In data set [4] the test system is Bacillus cereus ŁOCK 0807. The data set can be described thus: MIC determination. The following applies: Bacillus cereus ŁOCK 0807; 18 h. It counts as cell-based.
Data set [5] concerns Staphylococcus aureus ATCC 6538. The data set can be described thus: MIC determination. The following applies: S. aureus ATCC 6538; 18 h. It counts as cell-based. In outline:
as §4

In data set [6] the test system is Staphylococcus aureus ATCC 25923. The experiment in a line: MIC determination. The conditions noted are these: S. aureus ATCC 25923, 18 h. It counts as cell-based. In short, it runs like this: as §4
The subject of data set [7] is Salmonella typhimurium ATCC 14028. The data set can be described thus: MIC determination. Type of data set: cell-based. The following applies: S. typhimurium ATCC 14028, 18 h. In short, it runs like this: as §4
In data set [8] the test system is Enterococcus faecalis ATCC 29212. The experiment in a line: MIC determination. It counts as cell-based. The conditions noted are these: E. faecalis ATCC 29212; 18 h. In outline: as §4
Data set [9] relates to Staphylococcus epidermidis ATCC 12228. The experiment in a line: MIC determination. It counts as cell-based. The following applies: S. epidermidis ATCC 12228; 18 h. In outline:
as §4

Data set [10] has as its system Listeria monocytogenes ATCC 19115. The experiment in a line: MIC determination. Type of data set: cell-based. The conditions noted are these: Listeria monocytogenes ATCC 19115; 18 h. In outline: as §4
Another data set has as its system E. faecalis ATCC 29212. The data set can be described thus: Diffusion-well method, inhibition zones. Type of data set: cell-based, Enterococcus faecalis. The following applies: 500 µg/mL, wells 10 mm. In outline:
as §3

The next data set concerns B. subtilis ATCC 6633. The data set can be described thus: Diffusion-well method, inhibition zones. The conditions noted are these: 500 µg/mL, wells 10 mm. Type of data set: cell-based, Bacillus subtilis. The procedure:
as §1, §2

Data set [11] can be described thus: Time-dependent UV-vis solution stability in DMSO. Type of data set: physicochemical. The following applies: 0 min to 48 h, room temperature. The text has this:
The stability of metal complexes is a crucial property that provides insight into their interactions with biological molecules, as it directly impacts their reactivity, bioavailability, and effectiveness in therapeutic applications. Additionally, the solubility of these complexes in dimethyl sulfoxide (DMSO) is of considerable importance, as solubility data are essential for optimizing storage conditions and ensuring compatibility with biological assays.[39] DMSO, a widely used solvent in drug discovery, serves as a medium that supports the stability and bioavailability of complexes under assay conditions, which is critical for maintaining the integrity of analytical protocols and enabling accurate assessments of biological activity. For the obtained complexes, the time-dependent UV-vis investigations in DMSO (Fig. 5 and S9 ^†) were carried out from 0 min to 48 h (0 min, 30 min, 1 h, 2 h, 3 h, 24 h, 48 h).
The sample solutions (50 μL (1.0 × 10^−3 M)) of the complexes were prepared in DMSO (Sigma Aldrich, ≥99.9%). The absorption spectra of the complexes were measured with increasing time (0 min, 30 min, 60 min, 2 h, 3 h, 24 h, 48 h) at room temperature. All measurements were performed on the Shimadzu UV-2401PC.

Another data set relates to B. cereus ŁOCK 0807. The experiment in a line: Diffusion-well method, inhibition zones. The conditions noted are these: 500 µg/mL, wells 10 mm. It counts as cell-based, Bacillus cereus.
A further data set relates to E. coli ATCC 10530. The data set can be described thus: Diffusion-well method, inhibition zones. It counts as cell-based, Escherichia coli. The conditions noted are these: 500 µg/mL, wells 10 mm. In short, it runs like this: as §3
The subject of data set [12] is L. monocytogenes ATCC 19115. The experiment in a line: Diffusion-well method, inhibition zones. It counts as cell-based, Listeria monocytogenes. The conditions noted are these: 500 µg/mL, wells 10 mm. In short, it runs like this: as §3

Turning to `NC(=NN=Cc1ccccc1)c1cncc(Cl)n1.O.O=[N+]([O-])[O-].[Ag+]` [Complex 1, AgL1NO3 × H2O], the Inhibition zone in [1] is given as 18 mm; in the data set on S. aureus ATCC 25923 it was 20 mm; in the data set on S. aureus ATCC 6538, 16 mm; in the data set with E. faecalis ATCC 29212, 17 mm; in the data set with B. subtilis ATCC 6633, 17 mm; in the data set on B. cereus ŁOCK 0807, 17 mm. In addition, the Inhibition zone stood at 20 mm in the data set on E. coli ATCC 10530 and 19 mm in [12]. Moreover, the MIC in [2] was below 10 µg/mL; in data set [3], 50 µg/mL; in [4], 50 µg/mL; in data set [5], below 10 µg/mL; in data set [6], below 10 µg/mL; in data set [6] (listed as 1), below 10 µg/mL. Also, the MIC in [7] is below 10 µg/mL; in data set [7] (listed as 1), below 10 µg/mL; in data set [8] it was 50 µg/mL; in [9], 10 µg/mL; in data set [10], below 10 µg/mL. Further, in data set [11], the hypochromic effect amounted to 0.84%.

Values taken from article PMC12150283, “Synthesis of new Ag(I) and Cd(II) hydrozanomide-based complexes with antibacterial and anticancer properties” (RSC Advances, 2025).
